Measurements published in ChEMBL document CHEMBL1130089 (J Med Chem, 1997).
Active and inactive are the calls of the source. No cut-off for these calls is given here.

Experiments:
[1] = molecular target: T1, Estrogen receptor (Homo sapiens, UniProt Q92731+P03372); assay: Irreversible inhibition of [3H]estradiol binding to estrogen receptor; (-) indicates decrease in estradiol binding sites inactivated by the compound; type: protein assay
[2] = molecular target: T1, Estrogen receptor; assay: Compound concentration required to induce transcriptional activation in MVLN cells equal to 50% of 0.1 nM estradiol response; type: functional, cell-based
[3] = molecular target: T1, Estrogen receptor
Description: Relative affinity constant for cytosolic estrogen receptor

[4] = molecular target: T1, Estrogen receptor; assay: Agonist transcriptional activation in MVLN cells relative to 0.1 nM estradiol; type: functional, cell-based
[5] = molecular target: T1, Estrogen receptor; assay: Compound concentration required to induce transcriptional activation in MVLN cells comparable to 50% of 0.1 nM estradiol response; type: functional, cell-based
[6] = molecular target: T1, Estrogen receptor; remark: listed apart in the source

Structure (SMILES) | Covalent binding [1] | IC50 [2] [nM] | RAC [3] | Activity [4] [%] | EC50 [5] [nM] | Covalent binding [6]
C[C@]12C[C@H](CCCCOS(C)(=O)=O)[C@@H]3c4ccc(O)cc4CC[C@H]3[C@@H]1CC[C@@H]2O | inactive | 6 | 36.8 | – | – | –
C[C@]12C[C@H](CCNC(=O)CBr)[C@@H]3c4ccc(O)cc4CC[C@H]3[C@@H]1CC[C@@H]2O | inactive | – | 0.38 | 90 | 110 | –
C[C@]12C[C@H](CCCCBr)[C@@H]3c4ccc(O)cc4CC[C@H]3[C@@H]1CC[C@@H]2O | inactive | 3 | 11 | – | – | –
C[C@]12C[C@H](CCCCNC(=O)CBr)[C@@H]3c4ccc(O)cc4CC[C@H]3[C@@H]1CC[C@@H]2O | inactive | 320 | 1.64 | – | – | –
C[C@]12C[C@H](CCOS(C)(=O)=O)[C@@H]3c4ccc(O)cc4CC[C@H]3[C@@H]1CC[C@@H]2O | inactive | – | 8.15 | 95 | 6 | –
Cc1ccc(S(=O)(=O)OCCCCCCCCCC[C@H]2C[C@]3(C)[C@@H](O)CC[C@H]3[C@@H]3CCc4cc(O)ccc4[C@@H]23)cc1 | – | 4 | 2.59 | – | – | < 10
C=CCC[C@H]1C[C@]2(C)[C@@H](O)CC[C@H]2[C@@H]2CCc3cc(O)ccc3[C@@H]12 | – | – | 38.6 | 80 | < 10 | –
